The text below walks through data of US8063021B2, “Ketolide anti-infective compounds” (Kosan Biosciences Incorporated, priority 2003, dated 2011).

In test [1] the test system is H. influenzae ATCC 9006. Nature of the test: microdilution assay MIC, H. influenzae ATCC 9006. Type of test: cell-based, Haemophilus influenzae. The note with it: average where multiple assays. The procedure: (§1) In Table B, in some instances multiple assays were performed for a compound/strain combination, in which case the reported MIC is the average. S. pneumoniae ATCC 6301, ATCC 700671, and ATCC 49619 and S. aureus ATCC 6538p and ATCC 29213 are erythromycin sensitive strains.

In test [2] the test system is S. pneumoniae ATCC 49619. Nature of the test: microdilution assay MIC, S. pneumoniae ATCC 49619. Type of test: cell-based, Streptococcus pneumoniae. The note with it: S. pneumoniae ATCC 49619, erythromycin sensitive strain; average where multiple assays. The procedure: as §1
(Dilution methods test growth across graded concentrations, often in twofold steps.)

Test [3] concerns S. pneumoniae ATCC 700671. Nature of the test: microdilution assay MIC, S. pneumoniae ATCC 700671. Type of test: cell-based, Streptococcus pneumoniae. The note with it: S. pneumoniae ATCC 700671, erythromycin sensitive strain; average where multiple assays. The procedure:
as §1

The test system of test [4] is S. pneumoniae ATCC 6301. Nature of the test: microdilution assay MIC, S. pneumoniae ATCC 6301. In kind it is cell-based, Streptococcus pneumoniae. The note with it: S. pneumoniae ATCC 6301, erythromycin sensitive strain; average where multiple assays. The procedure: as §1
In test [5] the test system is S. pneumoniae ATCC 700677. Nature of the test: microdilution assay MIC, S. pneumoniae ATCC 700677. In kind it is cell-based, Streptococcus pneumoniae. The note with it: S. pneumoniae ATCC 700677, erythromycin A resistant strain; average where multiple assays. The procedure: as §1
Test [6] concerns H. influenzae ATCC 49766. In words: microdilution assay MIC, H. influenzae ATCC 49766. Type of test: cell-based, Haemophilus influenzae. Conditions: average where multiple assays. The procedure:
as §1

Test [7] concerns S. pneumoniae ATCC 700906. Nature of the test: microdilution assay MIC, S. pneumoniae ATCC 700906. Type of test: cell-based, Streptococcus pneumoniae. The note with it: S. pneumoniae ATCC 700906, erythromycin A resistant strain; average where multiple assays. The procedure:
(§2) In Table B, in some instances multiple assays were performed for a compound/strain combination, in which case the reported MIC is the average.

Test [8] relates to S. pneumoniae ATCC 700676. In words: microdilution assay MIC, S. pneumoniae ATCC 700676. Type of test: cell-based, Streptococcus pneumoniae. The note with it: S. pneumoniae ATCC 700676, erythromycin A resistant strain; average where multiple assays. The procedure: as §1
For test [9], the system named is S. pneumoniae ATCC 700905. Nature of the test: microdilution assay MIC, S. pneumoniae ATCC 700905. In kind it is cell-based, Streptococcus pneumoniae. The note with it: S. pneumoniae ATCC 700905, erythromycin A resistant strain; average where multiple assays. The procedure: as §1
The test system of test [10] is S. aureus ATCC 14154. Nature of the test: microdilution assay MIC, S. aureus ATCC 14154. In kind it is cell-based, Staphylococcus aureus. Conditions: S. aureus ATCC 14154, erythromycin A resistant strain; average where multiple assays. The procedure: as §2
Test [11] concerns S. aureus ATCC 6538p. Nature of the test: microdilution assay MIC, S. aureus ATCC 6538p. In kind it is cell-based, Staphylococcus aureus. The note with it: erythromycin sensitive strain, average where multiple assays. The procedure:
as §1

The test system of test [12] is S. epidermidis ATCC 12228. In words: microdilution assay MIC, S. epidermidis ATCC 12228. In kind it is cell-based, Staphylococcus epidermidis. Conditions: average where multiple assays. The procedure: as §1
For test [13], the system named is S. aureus ATCC 29213. In words: microdilution assay MIC, S. aureus ATCC 29213. In kind it is cell-based, Staphylococcus aureus. Conditions: S. aureus ATCC 29213, erythromycin sensitive strain; average where multiple assays. The procedure: as §1

Bounds are passed on as bounds.

With `COC1(C)CC(C)C(=O)C(C)C2NC(=O)OC2(C)C(CCNC(=O)Oc2ccc(-c3ccccc3)cc2)OC(=O)C(C)C(=O)C(C)C1OC1OC(C)CC(N(C)C)C1O` (centres unmarked) [Compound 112], the MIC turned out to be 3.12 µg/mL in [1]; 0.049 µg/mL in test [2]; 0.025 µg/mL in test [3]; 0.025 µg/mL in test [4]; 0.78 µg/mL in test [5]; 6.25 µg/mL in [6]. Besides, the MIC is 0.049 µg/mL in test [7], 0.025 µg/mL in test [8] and 0.025 µg/mL in test [9].
As for `COC1(C)CC(C)C(=O)C(C)C2NC(=O)OC2(C)C(CCNC(=O)Nc2cccc3ccccc23)OC(=O)C(C)C(=O)C(C)C1OC1OC(C)CC(N(C)C)C1O` (centres unmarked) [Compound 119], the MIC in [1] was determined as 6.25 µg/mL; in [2], 0.025 µg/mL; in [3] it was 0.049 µg/mL; in test [4] it was 0.025 µg/mL; in [5], 0.78 µg/mL; in [6], 3.12 µg/mL. The MIC in [7] was 0.098 µg/mL; in [8], 0.049 µg/mL; in test [9], 0.025 µg/mL.
With `COC1(C)CC(C)C(=O)C(C)C2NC(=O)OC2(C)C(CCNC(=O)Oc2ccc3ccccc3c2)OC(=O)C(C)C(=O)C(C)C1OC1OC(C)CC(N(C)C)C1O` (centres unmarked) [Compound 113], the MIC came out at 1.56 µg/mL in test [1]; 0.025 µg/mL in test [2]; 0.025 µg/mL in [3]; 0.025 µg/mL in [4]; 0.025 µg/mL in test [5]; 1.56 µg/mL in test [6]. Further, the MIC in [7], in [8] and in test [9] was 0.025 µg/mL throughout.
As to `COC1(C)CC(C)C(=O)C(C)C2NC(=O)OC2(C)C(CCN2CCCCC2)OC(=O)C(C)C(=O)C(C)C1OC1OC(C)CC(N(C)C)C1O` (centres unmarked) [Compound 102], the MIC in test [1] is 3.12 µg/mL; in test [2], 0.2 µg/mL; in test [3], 3.12 µg/mL; in test [4], 0.098 µg/mL; in test [5], more than 12.5 µg/mL; in [6], 6.25 µg/mL. Further, the figures for the MIC in test [7], in test [8] and in [9] were more than 12.5 µg/mL, 0.78 µg/mL and 0.098 µg/mL, respectively.
Regarding `COC1(C)CC(C)C(=O)C(C)C2NC(=O)OC2(C)C(CCNC(=O)Oc2ccc(F)cc2)OC(=O)C(C)C(=O)C(C)C1OC1OC(C)CC(N(C)C)C1O` (centres unmarked) [Compound 116], the MIC in test [1] worked out at 3.12 µg/mL; in test [2] it was 0.049 µg/mL; in [3] it was 0.025 µg/mL; in [4], 0.025 µg/mL; in [5], 0.39 µg/mL; in [6], 6.25 µg/mL. Also, the MIC came to 0.098 µg/mL in [7], 0.025 µg/mL in test [8] and 0.025 µg/mL in test [9].
With `COC1(C)CC(C)C(=O)C(C)C2NC(=O)OC2(C)C(CCNC(=O)Oc2cccc3ccccc23)OC(=O)C(C)C(=O)C(C)C1OC1OC(C)CC(N(C)C)C1O` (centres unmarked) [Compound 114], the MIC in [2] is 0.049 µg/mL; in [10] it was 0.025 µg/mL; in test [3], 0.025 µg/mL; in [11] it was 0.025 µg/mL; in test [4] it was 0.025 µg/mL; in test [5], 0.049 µg/mL. For the same compound, the MIC in [6] turned out to be 3.12 µg/mL; in [7], 6.25 µg/mL; in test [8], 0.098 µg/mL; in [9], 0.025 µg/mL.
Take `COC1(C)CC(C)C(=O)C(C)C2NC(=O)OC2(C)C(CCNC(=O)Oc2cccc(-c3ccncc3)c2)OC(=O)C(C)C(=O)C(C)C1OC1OC(C)CC(N(C)C)C1O` (centres unmarked) [Compound 110]: the MIC in test [1] was 1.56 µg/mL; in test [2] it was 0.025 µg/mL; in test [3], 0.025 µg/mL; in test [4], 0.025 µg/mL; in test [5], 0.025 µg/mL; in [6], 3.12 µg/mL. Moreover, the MIC in test [7] stood at 0.049 µg/mL; in [8], 0.025 µg/mL; in test [9] it was 0.025 µg/mL.
As to `CC[C@H]1OC(=O)[C@H](C)[C@@H](O[C@H]2C[C@@](C)(OC)[C@@H](O)[C@H](C)O2)[C@H](C)[C@@H](O[C@@H]2O[C@H](C)C[C@H](N(C)C)[C@H]2O)[C@](C)(O)C[C@@H](C)C(=O)[C@H](C)[C@@H](O)[C@]1(C)O` [Ery A, erythromycin A, reference compound], the MIC came to 1.56 µg/mL in test [1]; 0.049 µg/mL in test [2]; 0.049 µg/mL in [3]; 0.098 µg/mL in test [11]; 0.025 µg/mL in test [4]; 0.20 µg/mL in test [12]. Also, the MIC in test [5] turned out to be 6.25 µg/mL; in test [6], 6.25 µg/mL; in test [13], 0.20 µg/mL; in test [8], 6.25 µg/mL; in test [9], 3.12 µg/mL.
On to `COC(=O)NCCC1OC(=O)C(C)C(=O)C(C)C(OC2OC(C)CC(N(C)C)C2O)C(C)(OC)CC(C)C(=O)C(C)C2NC(=O)OC12C` (centres unmarked) [Compound 118], for which the MIC turned out to be 6.25 µg/mL in test [1]; 0.049 µg/mL in [2]; 0.39 µg/mL in test [10]; 0.049 µg/mL in test [3]; 0.49 µg/mL in test [11]; 0.025 µg/mL in test [4]. For the same compound, the MIC is 0.39 µg/mL in test [5]; 3.12 µg/mL in test [6]; more than 12.5 µg/mL in test [7]; 0.098 µg/mL in [8]; 0.98 µg/mL in test [9].
In the case of `COC1(C)CC(C)C(=O)C(C)C2NC(=O)OC2(C)C(CCNC(=O)OCC(C)C)OC(=O)C(C)C(=O)C(C)C1OC1OC(C)CC(N(C)C)C1O` (centres unmarked) [Compound 117], the MIC in [1] was 6.25 µg/mL; in test [2] it was 0.025 µg/mL; in test [3], 0.098 µg/mL; in test [4], 0.025 µg/mL; in [5], more than 12.5 µg/mL; in test [6] it was 6.25 µg/mL. Also, the MIC was more than 12.5 µg/mL in [7], 0.025 µg/mL in test [8] and 0.025 µg/mL in test [9].
Regarding `COC1(C)CC(C)C(=O)C(C)C2NC(=O)OC2(C)C(CCNC(=O)OCC2c3ccccc3-c3ccccc32)OC(=O)C(C)C(=O)C(C)C1OC1OC(C)CC(N(C)C)C1O` (centres unmarked) [Compound 115], the MIC in test [1] came to 0.78 µg/mL; in test [2] it was 0.025 µg/mL; in test [3], 0.025 µg/mL; in [4], 0.025 µg/mL; in test [5], 0.025 µg/mL; in test [6] it was 1.56 µg/mL. The MIC in test [7], in test [8] and in [9] was 0.025 µg/mL each time.
In the case of `COC1(C)CC(C)C(=O)C(C)C2NC(=O)OC2(C)C(CCNC(=O)Oc2cccc(-c3ccccc3)c2)OC(=O)C(C)C(=O)C(C)C1OC1OC(C)CC(N(C)C)C1O` (centres unmarked) [Compound 111], the MIC in test [1] is 1.56 µg/mL; in test [2] it was 0.049 µg/mL; in test [3], 0.025 µg/mL; in test [4] it was 0.025 µg/mL; in test [5], 0.025 µg/mL; in test [6], 1.56 µg/mL. Moreover, the MIC in test [7], in [8] and in test [9] was 0.025 µg/mL each time.
On to `COC1(C)CC(C)C(=O)C(C)C2NC(=O)OC2(C)C(CCNC(=O)Oc2cccc(-c3cccnc3)c2)OC(=O)C(C)C(=O)C(C)C1OC1OC(C)CC(N(C)C)C1O` (centres unmarked) [Compound 109], for which the MIC was found to be 1.56 µg/mL in test [1]; 0.025 µg/mL in test [2]; 0.025 µg/mL in test [3]; 0.025 µg/mL in test [4]; 0.025 µg/mL in test [5]; 1.56 µg/mL in [6]. For the same compound, the MIC in test [7], in test [8] and in test [9] was 0.025 µg/mL in each case.
